We go through 16 molecules from ChEMBL document CHEMBL1150093, “Santolindiacetylene, a polyacetylene derivative isolated from the essential oil of Santolina canescens” (J Nat Prod, 1995).

Experiment [1] relates to Radical scavenging activity. Nature of the experiment: Antioxidant activity assessed as DPPH radical scavenging activity. Format: functional. On the technique in general: The DPPH test is a chemical assay of radical scavenging.
For experiment [2], the system named is Rattus norvegicus. Nature of the experiment: Antihepatotoxic activity against carbon tetrachloride-induced hepatotoxicity in Wistar rat liver assessed as decrease in serum glutamate pyruvate transaminase level at 7 mg/kg, ip administered 24 hrs before carbon tetrachloride intoxication relative to control. Details: scale not given: the % may be the effect or the level left. Particulars: route intraperitoneal. The experiment is classed as functional.

In experiment [3] the test system is Rattus norvegicus. Put plainly: Antihepatotoxic activity against carbon tetrachloride-induced hepatotoxicity in Wistar rat assessed as decrease in serum glutamate pyruvate transaminase level at 7 mg/kg, ip administered 24 hrs before carbon tetrachloride intoxication. The experiment is classed as functional. Particulars: route intraperitoneal.
Experiment [4] concerns Rattus norvegicus. Nature of the experiment: Antihepatotoxic activity against carbon tetrachloride-induced -induced hepatotoxicity in Wistar rat liver assessed as decrease in hepatic malondialdehyde level at 7 mg/kg, ip administered 24 hrs before carbon tetrachloride intoxication relative to control. Format: functional. Set-up: scale not given: the % may be the effect or the level left. The note with it: route intraperitoneal.

The subject of experiment [5] is Rattus norvegicus. Put plainly: Antihepatotoxic activity against carbon tetrachloride-induced hepatotoxicity in Wistar rat liver assessed as decrease in hepatic malondialdehyde level at 7 mg/kg, ip administered 24 hrs before carbon tetrachloride intoxication. Format: functional. The note with it: route intraperitoneal.
The test system of experiment [6] is Rattus norvegicus. Nature of the experiment: Antihepatotoxic activity against carbon tetrachloride-induced hepatotoxicity in Wistar rat liver assessed as decrease in serum glutamate pyruvate transaminase level at 35 mg/kg, ip administered 24 hrs before carbon tetrachloride intoxication. Format: functional, organism-based. Set-up: dose 35 mg/kg.
Experiment [7] concerns Rattus norvegicus. Nature of the experiment: Antihepatotoxic activity against carbon tetrachloride-induced hepatotoxicity in Wistar rat liver assessed as decrease in hepatic malondialdehyde level at 35 mg/kg, ip administered 24 hrs before carbon tetrachloride intoxication. Format: functional, organism-based. Set-up: dose 35 mg/kg.
In experiment [8] the test system is Rattus norvegicus. Nature of the experiment: Antihepatotoxic activity against carbon tetrachloride-induced hepatotoxicity in Wistar rat liver assessed as decrease in serum glutamate pyruvate transaminase level at 35 mg/kg, ip administered 24 hrs before carbon tetrachloride intoxication relative to control. Set-up: dose 35 mg/kg; scale not given: the % may be the effect or the level left. Format: functional, organism-based.

The subject of experiment [9] is Rattus norvegicus. Put plainly: Antihepatotoxic activity against carbon tetrachloride-induced hepatotoxicity in Wistar rat liver assessed as decrease in hepatic malondialdehyde level at 35 mg/kg, ip administered 24 hrs before carbon tetrachloride intoxication relative to control. Format: functional, organism-based. Set-up: dose 35 mg/kg; scale not given: the % may be the effect or the level left.

Converted amounts (≈) assume the structure as drawn.

For `O=C1O[C@H]([C@@H](O)CO)C(O)=C1O`, the Activity in experiment [1] turned out to be 2.7 µg/mL.
The term EC50 denotes the concentration that produces a half-maximal response. On to `CC1=CCC2CC1C2(C)C` (stereo not drawn) [ALPHA-PINENE], for which the EC50 in experiment [1] is 330.6 mg/mL (≈ 2430 mM).
The same measure, in the same setting: then `CC1=CC[C@@H](C(C)(C)O)CC1` [ALPHA-TERPINEOL], with 0.1463 mg/mL (≈ 0.948 mM).
As to `C=C1C=CC(C(C)C)CC1` (stereo not drawn) [BETA-PHELLANDRENE], the EC50 in [1] is 127.7 mg/mL (≈ 937 mM).
In the case of `C=C1CCC2CC1C2(C)C` (stereo not drawn) [BETA-PINENE], the EC50 in experiment [1] stood at 220.1 mg/mL (≈ 1620 mM).
Turning to `CC1(C)C2CCC1(C)C(O)C2` (centres undefined) [BORNEOL], the concentration giving a half-maximal response (EC50) in experiment [1] stood at 2.4 mg/mL (≈ 15.6 mM).
`CC12CCC(CC1=O)C2(C)C` (centres undefined) [CAMPHOR]: in experiment [1], the EC50 stood at 2.4 mg/mL (≈ 15.8 mM).
`C=C(C)C1CC=C(C)C(=O)C1` (centres undefined) [CARVONE]: the EC50 in experiment [1] stood at 11.7 mg/mL (≈ 77.9 mM).
As for `C=C1CC/C=C(/C)CC[C@@H]2[C@@H]1CC2(C)C` [CARYOPHYLLENE], the EC50 in experiment [1] came out at 0.0037 mg/mL (≈ 0.0181 mM).
As to `CC1=CCC(C(C)C)=CC1` [GAMMA-TERPINENE], the EC50 in [1] amounted to 22 mg/mL (≈ 161 mM).
In the case of `C=CC(=C)CCC=C(C)C` [MYRCENE], the EC50 in experiment [1] is 248 mg/mL (≈ 1820 mM).
In the case of `Cc1ccc(C(C)C)cc1` [P-CYMENE], in experiment [1], the EC50 was 408 mg/mL (≈ 3040 mM).
As to `C=C1CCC2(C(C)C)CC12` (centres undefined) [SABINENE], the EC50 in experiment [1] came out at 232.7 mg/mL (≈ 1710 mM).
On to `CC#CC#CCc1ccc2ccccc2c1` [SANTOLINDIACETYLENE], for which the Activity in experiment [1] amounted to 1.7 µg/mL; in the experiment with Rattus norvegicus [2] it was 19.8%; with Rattus norvegicus [3] it was 23.3 IU/L; in the experiment with Rattus norvegicus [4], 33.3%; in the experiment with Rattus norvegicus [5], 0.182 nmol/mL.
`CC1=CCC(O)(C(C)C)CC1` (centres undefined) [TERPINEOL]: in [1], the EC50 worked out at 53.7 mg/mL (≈ 348 mM).
In the case of SILYMARIN, the Activity in [1] stood at 24.6 µg/mL; with Rattus norvegicus [6] it was 27.9 IU/L; in the experiment with Rattus norvegicus [7] it was 0.2 nmol/mL; in the experiment with Rattus norvegicus [8], 23.7%; in the experiment on Rattus norvegicus [9], 36.6%.
